Experimental data as given in patent US5284850A, “Terpene amino alcohols and medicinal uses thereof” (Kuraray Co., Ltd., priority 1985, dated 1994).

System: sensitized bronchial muscle
Test: Antiallergic action: inhibition of egg albumin-induced contraction of sensitized guinea pig bronchial muscle
Assay type: tissue-based, guinea pigs of Hartley strain
Conditions: Cavia porcellus; for inhibition at 10 µM: 10^-5 M; for inhibition at 1 µM: 10^-6 M; for inhibition at 0.1 µM: 10^-7 M; for inhibition at 100 µM: 10^-4 M; for inhibition at 0.01 µM: 10^-8 M
Protocol: Male guinea pigs of Hartley strain (body weight: about 250 g) were intraperitoneally or intramuscularly dosed with egg albumin (dose 100 mg/kg) and the same procedure was repeated after 3 days. After 3 to 4 weeks, the guinea pi-as were bled to death and the sensitized bronchial muscle was excised and cut into 1.5 mm thick rings. Three rings were joined to prepare a specimen. The specimen was suspended in a tissue bath and a load of 1 g was applied. […] After stabilization of the specimen (after about 1 hour), histamine hydrochloride was added to the bath at a final concentration of 10^-5 M. The contraction curve was recorded. After the contraction had been stabilized, the specimen was washed with 3 portions of Ringer's solution at 10-minute intervals to stabilize the contraction (about 1 hour was required). Then, the test compound was added to the tissue bath and, after an interval of 10 minutes, 5 mg/ml of egg albumin was added. The contraction amplitude of the specimen was measured and the percent inhibition was calculated according to the following formula. [formula] A: Contraction amplitude of control group when egg albumin is added A': Contraction amplitude of dosage group when egg albumin is added
H: Contraction amplitude of control group when histamine hydrochloride is added
H': Contraction amplitude of dosage group when histamine hydrochloride is added

CC(C)CCCC(C)(O)C(CO)N(C)CCO (stereo not drawn) [Compound (60), 2-[(2-hydroxyethyl)methylamino]-3,7-dimethyl-1,3-octanediol]
inhibition at 10 µM: 35% | inhibition at 1 µM: 11% | inhibition at 0.1 µM: 0%

CC(C)CCCC(C)CCCC(C)(O)C(CO)N1CCSCC1 (stereo not drawn) [Compound (68)]
inhibition at 10 µM: 38% | inhibition at 1 µM: 36% | inhibition at 0.1 µM: 22%

CC(C)CCCC(C)CCCC(C)(O)C(O)CNCCCN1CCOCC1 (stereo not drawn) [Compound (22)]
inhibition at 0.1 µM: 46.9%

COc1ccc(CN2CCN(C(CO)C(C)(O)CCCC(C)CCCC(C)C)CC2)c(OC)c1OC (stereo not drawn) [Compound (65)]
inhibition at 10 µM: 73% | inhibition at 1 µM: 54% | inhibition at 0.1 µM: 37%

CC(C)CCCC(C)(O)CCCC(C)(O)CCN(C)Cc1ccccc1 (stereo not drawn) [Compound (29), 1-(methylbenzylamino)-3,7,11-trimethyl-3,7-dodecanediol]
inhibition at 0.1 µM: 42.3%

CCCCN(CCCC)CC(O)C(C)(O)CCCC(C)CCCC(C)C (stereo not drawn) [Compound (13), 1-dibutylamino-3,7,11-trimethyl-2,3-dodecanediol]
inhibition at 100 µM: 40.2%

CCCNCC(O)C(C)(O)CCC=C(C)C (stereo not drawn) [Compound (47)]
inhibition at 10 µM: 52% | inhibition at 1 µM: 43% | inhibition at 0.1 µM: 5%

CC(C)CCCC(C)CCCC(C)(O)C(O)CN1CCOCC1 (stereo not drawn) [Compound (17), 3,7,11-trimethyl-l-morpholino-2,3-dodecanediol]
inhibition at 10 µM: 45% | inhibition at 1 µM: 68% | inhibition at 0.1 µM: 29%

CC(C)=CCCC(C)(O)C(O)CN1CCOCC1 (stereo not drawn) [Compound (5)]
inhibition at 10 µM: 28.9% | inhibition at 1 µM: 71.5% | inhibition at 0.1 µM: 23%

CC(C)=CCCC(C)(O)C(O)CN1CCCCC1 (stereo not drawn) [Compound (4)]
inhibition at 10 µM: 42% | inhibition at 1 µM: 2.6%

CC(C)CCCC(C)CCCC(C)(O)C(O)CNc1ccncc1 (stereo not drawn) [Compound (20)]
inhibition at 1 µM: 71% | inhibition at 0.1 µM: 40% | inhibition at 0.01 µM: 15%

CC(C)CCCC(C)CCCC(C)(O)C(CO)NCCCN1CCOCC1 (stereo not drawn) [Compound (69)]
inhibition at 1 µM: 65% | inhibition at 0.1 µM: 52%

CC(C)CCCC(C)CCCC(C)(O)C(O)CNc1cccc2ncccc12 (stereo not drawn) [Compound (23)]
inhibition at 1 µM: 76% | inhibition at 0.1 µM: 55% | inhibition at 0.01 µM: 27%

CC(C)CCCC(C)CCCC(C)(O)C(O)CN1CCCCC1 (stereo not drawn) [Compound (39)]
inhibition at 0.1 µM: 29.1%

CC(C)CCCC(C)CCCC(C)(O)C(CO)N(C)C(=O)c1cccnc1 (stereo not drawn) [Compound (66), N-methyl-N-(1,3-dihydroxy-3,7,11-trimethyldodecan-2-yl)nicotinamide]
inhibition at 10 µM: 77% | inhibition at 1 µM: 72% | inhibition at 0.1 µM: 81%

CC(C)CCCC(C)CCCC(C)(O)C(C)N (stereo not drawn) [Compound (61)]
inhibition at 10 µM: 70% | inhibition at 1 µM: 48% | inhibition at 0.1 µM: 24%

CCN(CC)CC(O)C(C)(O)CCC=C(C)C (stereo not drawn) [Compound (48)]
inhibition at 10 µM: 47% | inhibition at 1 µM: 39%

CC(C)CCCC(C)CCCC(C)(O)C(O)CNCc1cccnc1 (stereo not drawn) [Compound (41)]
inhibition at 0.1 µM: 46%

CC(C)=CCCC(C)(O)C(O)CN(C)C (stereo not drawn) [Compound (45)]
inhibition at 100 µM: 52% | inhibition at 10 µM: 41% | inhibition at 1 µM: 26%

CC(C)CCCC(C)CCCC(C)(O)C(O)CN (stereo not drawn) [Compound (11), 1-amino-3,7,11-trimethyl-2,3-dodecanediol]
inhibition at 10 µM: 40.7% | inhibition at 1 µM: 32.5%

CC(C)CCCC(C)CCCC(C)(O)C(O)CNc1ccc(O)cc1 (stereo not drawn) [Compound (19)]
inhibition at 10 µM: 43% | inhibition at 1 µM: 54% | inhibition at 0.1 µM: 33%

CNC(CO)C(C)(O)CCCC(C)CCCC(C)C (stereo not drawn) [Compound (62)]
inhibition at 10 µM: 39% | inhibition at 1 µM: 35% | inhibition at 0.1 µM: 12%

CC(C)CCCC(C)CCCC(C)(O)C(O)CNC1CCN(Cc2ccccc2)CC1 (stereo not drawn) [Compound (40), 1-[(1-benzylpiperidin-4-yl)amino]-3,7-11-trimethyl-2,3-dodecanediol]
inhibition at 0.1 µM: 34.8%

CC(C)CCCC(C)CCCC(C)(O)C(O)CNCCO (stereo not drawn) [Compound (14)]
inhibition at 10 µM: 48.7% | inhibition at 1 µM: 51.4%

CNCC(O)C(C)(O)CCC=C(C)C (stereo not drawn) [Compound (44)]
inhibition at 10 µM: 63% | inhibition at 1 µM: 54%

CC(C)=CCCC(C)(O)C(O)CN (stereo not drawn) [Compound (43)]
inhibition at 1 µM: 65%

CNCC(O)C(C)(O)CCCC(C)CCCC(C)CCCC(C)C (stereo not drawn) [(31)]
inhibition at 10 µM: 10.9%

CC(C)=CCCC(C)(O)C(CO)N1CCOCC1 (stereo not drawn) [Compound (56)]
inhibition at 10 µM: 27% | inhibition at 1 µM: 44% | inhibition at 0.1 µM: 16% | inhibition at 0.01 µM: 0%

CC(C)CCCC(C)(O)CCCC(C)(O)C(C)N(C)Cc1ccccc1 (stereo not drawn) [Compound (71), 2-(benzylmethylamino)-3,7,11-trimethyl-3,7-dodecanediol]
inhibition at 1 µM: 37% | inhibition at 0.1 µM: 46%

COc1ccccc1N1CCN(CC(O)C(C)(O)CCCC(C)CCCC(C)C)CC1 (stereo not drawn) [Compound (42)]
inhibition at 1 µM: 58% | inhibition at 0.1 µM: 35%

CN(CCC(C)(O)CCCC(C)(O)CCCC(C)(C)O)Cc1ccccc1 (stereo not drawn) [Compound (37), 1-(methylbenzylamino)-3,7,11-trimethyl-3,7,11-dodecanetriol]
inhibition at 0.1 µM: 16%

CC(C)CCCC(C)CCCC(C)CCCC(C)(O)C(CO)N(C)CCOC(=O)c1cccnc1 (stereo not drawn) [Compound (74)]
inhibition at 10 µM: 43% | inhibition at 1 µM: 16% | inhibition at 0.1 µM: 20%

CC(C)CCCC(C)CCCC(C)(O)C(O)Cn1c(=O)[nH]c2ccccc21 (stereo not drawn) [Compound (25)]
inhibition at 1 µM: 69% | inhibition at 0.1 µM: 47% | inhibition at 0.01 µM: 19%

CC(C)CCCC(C)(O)C(O)CN (stereo not drawn) [Compound (7)]
inhibition at 10 µM: 54.3% | inhibition at 1 µM: 48.1% | inhibition at 0.1 µM: 58.7%

CC(C)CCCC(C)CCCC(C)(O)C(O)CN1CCSCC1 (stereo not drawn) [Compound (26)]
inhibition at 10 µM: 50% | inhibition at 1 µM: 39% | inhibition at 0.1 µM: 18%

CC(C)CCCC(C)CCCC(C)(O)C(O)CN(C)C (stereo not drawn) [Compound (16), 1-(dimethylamino)-3,7,11-trimethyl-2,3-dodecanediol]
inhibition at 10 µM: 48% | inhibition at 1 µM: 35% | inhibition at 0.1 µM: 15%

CC(C)=CCCC(C)(O)C(CO)N1CCCCC1 (stereo not drawn) [Compound (55)]
inhibition at 10 µM: 45% | inhibition at 1 µM: 17% | inhibition at 0.1 µM: 9% | inhibition at 0.01 µM: 0%

CNCC(O)C(C)CCCC(C)CCCC(C)C (stereo not drawn) [Compound (28), 1-methylamino-3,7,11-trimethyl-2-dodecanol]
inhibition at 10 µM: 66% | inhibition at 1 µM: 49% | inhibition at 0.1 µM: 35%

CNCCC(C)(O)CCCC(C)(O)CCCC(C)C (stereo not drawn) [Compound (27), 1-(methylamino)-3,7,11-trimethyl-3,7-dodecanediol]
inhibition at 0.1 µM: 15.6%

CCCCN(CCCC)C(CO)C(C)(O)CCC=C(C)C (stereo not drawn) [Compound (53)]
inhibition at 10 µM: 33% | inhibition at 1 µM: 59% | inhibition at 0.1 µM: 49% | inhibition at 0.01 µM: 8%

CCCCNCC(O)C(C)(O)CCC=C(C)C (stereo not drawn) [Compound (49)]
inhibition at 1 µM: 61% | inhibition at 0.1 µM: 20.7%

CC(C)CCCC(C)CCCC(C)(O)C(O)CN1CCN(C(c2ccccc2)c2ccccc2)CC1 (stereo not drawn) [Compound (24)]
inhibition at 1 µM: 75% | inhibition at 0.1 µM: 60% | inhibition at 0.01 µM: 25%

CNC(C)C(C)(O)CCCC(C)(O)CCCC(C)C (stereo not drawn) [Compound (70), 2-(methylamino)-3,7,11-trimethyl-3,7-dodecanediol]
inhibition at 1 µM: 42% | inhibition at 0.1 µM: 19%

CC(C)CCCC(C)CCCC(C)CCCC(C)(O)C(CO)N(C)CCO (stereo not drawn) [Compound (73)]
inhibition at 10 µM: 36% | inhibition at 1 µM: 58% | inhibition at 0.1 µM: 47% | inhibition at 0.01 µM: 21%

CC(C)CCCC(C)CCCC(C)(O)C(CO)n1ccnc1 (stereo not drawn) [Compound (64)]
inhibition at 0.1 µM: 63%

CC(C)CCCC(C)CCCC(C)(O)C(O)Cn1ccnc1 (stereo not drawn) [Compound (21), 1-(1H-imidazol-1-yl)-3,7,11-trimethyl-2,3-dodecanediol]
inhibition at 0.1 µM: 66.9%

COc1ccc(CN2CCN(CC(O)C(C)(O)CCCC(C)CCCC(C)C)CC2)c(OC)c1OC (stereo not drawn) [Compound (18), 3,7,11-trimethyl-l-[4-[(2,3,4-trimethoxyphenyl)methyl]piperazin-1-yl]-2,3-dodecanediol]
inhibition at 10 µM: 62% | inhibition at 1 µM: 79% | inhibition at 0.1 µM: 45%

CC(C)=CCCC(C)(O)C(CO)N(C)CCO (stereo not drawn) [Compound (57)]
inhibition at 10 µM: 35% | inhibition at 1 µM: 17%

CCCNC(CO)C(C)(O)CCC=C(C)C (stereo not drawn) [Compound (52)]
inhibition at 10 µM: 62% | inhibition at 1 µM: 31% | inhibition at 0.1 µM: 7% | inhibition at 0.01 µM: 0%

CC(C)=CCCC(C)(O)C(N)CO (stereo not drawn) [Compound (50), 2-amino-3,7-dimethyl-6-octene-1,3-diol]
inhibition at 10 µM: 55% | inhibition at 1 µM: 20% | inhibition at 0.1 µM: 0%

CC(C)CCCC(C)CCCC(C)CCCC(C)(O)C(O)CN (stereo not drawn) [Compound (30)]
inhibition at 10 µM: 16.7% | inhibition at 1 µM: 9%

CCCCN(CCCC)CC(O)C(C)(O)CCC=C(C)C (stereo not drawn) [(1)]
inhibition at 100 µM: 43.6%

CCNCC(O)C(C)(O)CCC=C(C)C (stereo not drawn) [Compound (46)]
inhibition at 100 µM: 38% | inhibition at 10 µM: 54% | inhibition at 1 µM: 23%

CC(C)=CCCC(C)(O)C(CO)N(C)C (stereo not drawn) [Compound (51)]
inhibition at 10 µM: 41% | inhibition at 1 µM: 18% | inhibition at 0.1 µM: 0%
